In ChEMBL document CHEMBL1201862, “PubChem BioAssay data set” (2004):
Blank lines part the entries; values can stand above or below the molecule they belong to. The source made the active and inactive calls.

Tests used:
HEK293 [1] = experiment: SAR Analysis of small molecule inhibitors of B-cell specific antigen receptor-induced NF-kB activation in a HEK-293T cell line using a luminescence assay - Set 2. [Related pubchem assays (depositor defined):AID435022, AID435025, AID489021]; format: functional, cell-based; settings: Homo sapiens
Jurkat = experiment: SAR Analysis of small molecule inhibitors of […] specific antigen receptor-induced NF-kB activation in a Jurkat cell line using a luminescence assay - Set 3. [Related pubchem assays (depositor defined):AID435022, AID435025, AID465]; format: functional, cell-based; settings: Homo sapiens
HEK293 [2] = experiment: cytotoxicity in HEK293T NF-kB-Luc cells, SAR follow-up, cytotoxicity control for NF-kB activator project, cell-based, resazurin fluorescence (AID 493251); format: functional; settings: Homo sapiens
[3] = molecular target: Dual specificity tyrosine-phosphorylation-regulated kinase 1A (Rattus norvegicus, UniProt Q63470); format: biochemical, Homo sapiens
[4] = molecular target: T1, DNA repair protein RAD52 homolog (Homo sapiens, UniProt P43351); format: functional, biochemical
T1 sequence (P43351 whole entry): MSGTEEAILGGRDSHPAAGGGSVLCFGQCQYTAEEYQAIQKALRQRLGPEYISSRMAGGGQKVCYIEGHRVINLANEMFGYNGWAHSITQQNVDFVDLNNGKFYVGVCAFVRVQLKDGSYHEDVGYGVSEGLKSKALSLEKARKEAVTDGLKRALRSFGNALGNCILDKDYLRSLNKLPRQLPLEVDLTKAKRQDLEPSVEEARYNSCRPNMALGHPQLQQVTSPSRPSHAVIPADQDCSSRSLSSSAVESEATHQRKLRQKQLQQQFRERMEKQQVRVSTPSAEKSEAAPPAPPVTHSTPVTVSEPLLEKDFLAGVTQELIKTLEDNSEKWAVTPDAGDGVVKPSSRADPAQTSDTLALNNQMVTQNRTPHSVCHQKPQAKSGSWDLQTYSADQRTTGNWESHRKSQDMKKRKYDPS

HEK293 [5] = experiment: inhibitors of LMP1-driven NF-kB reporter, dose response, cell-based, HEK293, luciferase, cherry-pick (AID 588343); format: functional; settings: Homo sapiens
[6] = molecular target: T2, DNA repair and recombination protein RAD54-like (Homo sapiens, UniProt Q92698); experiment: inhibitors of human RAD54 branch migration, confirmation, biochemical, fluorescence, cherry-picked samples, dose series (AID 651657); format: functional
T2 sequence (Q92698 whole entry): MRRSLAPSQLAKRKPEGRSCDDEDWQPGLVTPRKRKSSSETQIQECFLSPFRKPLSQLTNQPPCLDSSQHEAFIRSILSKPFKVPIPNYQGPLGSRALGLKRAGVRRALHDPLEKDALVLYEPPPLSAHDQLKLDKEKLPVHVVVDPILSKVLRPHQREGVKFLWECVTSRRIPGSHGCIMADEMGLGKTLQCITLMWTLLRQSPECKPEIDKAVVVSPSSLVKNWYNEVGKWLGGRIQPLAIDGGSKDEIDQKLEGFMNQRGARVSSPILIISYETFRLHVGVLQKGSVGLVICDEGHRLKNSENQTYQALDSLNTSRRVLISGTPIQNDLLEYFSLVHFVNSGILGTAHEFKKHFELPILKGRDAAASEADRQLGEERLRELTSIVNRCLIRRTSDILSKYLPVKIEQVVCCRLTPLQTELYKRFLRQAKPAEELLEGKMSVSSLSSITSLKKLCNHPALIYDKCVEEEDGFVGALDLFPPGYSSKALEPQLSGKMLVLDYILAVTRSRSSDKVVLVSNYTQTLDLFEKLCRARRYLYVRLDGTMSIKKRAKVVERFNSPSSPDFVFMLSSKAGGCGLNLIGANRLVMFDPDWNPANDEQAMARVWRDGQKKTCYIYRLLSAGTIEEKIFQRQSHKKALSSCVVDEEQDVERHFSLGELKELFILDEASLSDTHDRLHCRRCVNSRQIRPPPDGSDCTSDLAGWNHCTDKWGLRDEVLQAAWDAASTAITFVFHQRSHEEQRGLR

Leucine aminopeptidase = molecular target: T3, Leucine aminopeptidase (Plasmodium falciparum 3D7, UniProt Q8IL11); experiment: P. falciparum M17LAP inhibitors, primary screen, biochemical, fluorogenic H-Leu-NHMec substrate, 1536-well (AID 1619); format: functional
T3 sequence (Q8IL11 whole entry): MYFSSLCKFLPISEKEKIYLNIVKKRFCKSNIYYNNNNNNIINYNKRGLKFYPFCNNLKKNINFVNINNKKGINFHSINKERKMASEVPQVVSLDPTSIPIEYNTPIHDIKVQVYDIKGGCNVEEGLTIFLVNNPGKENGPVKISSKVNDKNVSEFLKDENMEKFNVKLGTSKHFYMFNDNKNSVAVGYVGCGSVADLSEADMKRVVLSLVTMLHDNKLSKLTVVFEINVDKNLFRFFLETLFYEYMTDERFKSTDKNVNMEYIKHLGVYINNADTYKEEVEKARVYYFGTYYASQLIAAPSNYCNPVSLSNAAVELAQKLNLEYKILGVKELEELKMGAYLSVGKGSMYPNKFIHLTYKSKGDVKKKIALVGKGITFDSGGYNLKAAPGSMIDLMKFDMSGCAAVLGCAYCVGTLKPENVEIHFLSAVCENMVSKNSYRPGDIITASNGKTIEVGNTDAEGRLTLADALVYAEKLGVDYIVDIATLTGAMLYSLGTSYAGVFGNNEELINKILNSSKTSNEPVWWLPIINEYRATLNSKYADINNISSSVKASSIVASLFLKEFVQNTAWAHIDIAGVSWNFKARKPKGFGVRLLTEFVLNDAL

[7] = molecular target: Serine/threonine-protein phosphatase (Candida dubliniensis (strain CD36 / CBS 7987 / NCPF 3949 / NRRLY-17841) (Yeast), UniProt B9W6M3); experiment: calcineurin pathway inhibitors in yeast reporter, dose response, S. cerevisiae, CDRE-lacZ, luminescence, secondary (AID 2388); format: functional, cell-based;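 note: yeast reporter cells carrying a calcineurin-responsive lacZ construct stimulated with calcium chloride; luminescent beta-galactosidase reporter signal in whole cells rather than isolated phosphatase activity; potency for inhibition where a drop in reporter signal means calcineurin blockade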
[8] = molecular target: ATP-dependent molecular chaperone HSP82 (Candida albicans (strain WO-1) (Yeast), UniProt C4YTQ8); experiment: loss of DOC-induced GRE-beta-galactosidase reporter signal, dose response, Hsp90 inhibitor project, S. cerevisiae, luminescence (AID 2400); format: functional, cell-based;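 note: beta-galactosidase luminescence from glucocorticoid response element reporter as proxy for Hsp90 function; inhibitor potency where signal loss means Hsp90 inhibition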
Mu-type opioid receptor = Mu-type opioid receptor (Homo sapiens, UniProt P35372); experiment: (§1) Counterscreen for agonists of heterodimerization of the mu 1 (OPRM1) and delta 1 (OPRD1) opioid receptors: Luminescence-based cell-based high throughput dose response assay to identify agonists of OPRM1 homodimerization.; format: functional
[9] = molecular target: 5-hydroxytryptamine receptor 5A (Homo sapiens, UniProt P47898); experiment: Counterscreen for agonists of OPRM1-OPRD1 heterodimerization: luminescence-based cell-based high throughput dose response assay to identify agonists of 5-hydroxytryptamine (serotonin) 5A receptor (HTR5A). [Related pubchem assays (depositor defined):AID504326, AID504355, AID504692, AID504904, AID504905]; format: functional
[10] = molecular target: Delta-type opioid receptor (Homo sapiens, UniProt P41143); experiment: as §1, with “of OPRD1” for “of OPRM1”, “homodimerization. [Related pubchem assays (depositor defined):AID504326, AID504355, AID504692, AID504904, AID504905]” for “homodimerization.”; format: functional
Chain of Delta-type opioid receptor (P41143 whole entry): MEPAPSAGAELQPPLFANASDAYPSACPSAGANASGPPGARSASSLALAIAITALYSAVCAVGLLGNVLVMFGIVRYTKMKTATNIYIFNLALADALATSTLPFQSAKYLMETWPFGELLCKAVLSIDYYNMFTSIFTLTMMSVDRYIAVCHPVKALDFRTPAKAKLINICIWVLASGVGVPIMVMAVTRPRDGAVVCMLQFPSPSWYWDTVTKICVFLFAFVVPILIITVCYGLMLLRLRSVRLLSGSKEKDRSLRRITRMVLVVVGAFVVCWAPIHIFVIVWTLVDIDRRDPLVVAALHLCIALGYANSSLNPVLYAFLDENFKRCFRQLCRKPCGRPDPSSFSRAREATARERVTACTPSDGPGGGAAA

Chain of 5-hydroxytryptamine receptor 5A (P47898 whole entry): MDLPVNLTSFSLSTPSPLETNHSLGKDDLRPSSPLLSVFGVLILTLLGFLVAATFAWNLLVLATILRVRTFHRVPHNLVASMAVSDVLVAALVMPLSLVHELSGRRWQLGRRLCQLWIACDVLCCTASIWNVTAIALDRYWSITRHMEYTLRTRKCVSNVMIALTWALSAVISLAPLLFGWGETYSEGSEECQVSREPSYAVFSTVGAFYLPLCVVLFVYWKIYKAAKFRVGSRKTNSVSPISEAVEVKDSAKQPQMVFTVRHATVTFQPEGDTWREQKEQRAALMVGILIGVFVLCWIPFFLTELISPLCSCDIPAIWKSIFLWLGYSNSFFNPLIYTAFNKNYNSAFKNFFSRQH
Chain of Mu-type opioid receptor (P35372 whole entry): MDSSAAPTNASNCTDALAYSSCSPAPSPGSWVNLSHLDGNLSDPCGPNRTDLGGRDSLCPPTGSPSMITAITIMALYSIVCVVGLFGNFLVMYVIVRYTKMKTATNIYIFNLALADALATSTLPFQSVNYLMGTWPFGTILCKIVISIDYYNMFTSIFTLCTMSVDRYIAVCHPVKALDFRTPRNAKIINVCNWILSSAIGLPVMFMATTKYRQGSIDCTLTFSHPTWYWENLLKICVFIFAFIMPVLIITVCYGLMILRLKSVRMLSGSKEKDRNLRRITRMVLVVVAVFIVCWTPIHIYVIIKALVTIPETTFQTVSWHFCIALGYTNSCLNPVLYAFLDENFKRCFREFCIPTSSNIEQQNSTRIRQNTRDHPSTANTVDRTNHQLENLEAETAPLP
Chain of ATP-dependent molecular chaperone HSP82 (C4YTQ8 whole entry): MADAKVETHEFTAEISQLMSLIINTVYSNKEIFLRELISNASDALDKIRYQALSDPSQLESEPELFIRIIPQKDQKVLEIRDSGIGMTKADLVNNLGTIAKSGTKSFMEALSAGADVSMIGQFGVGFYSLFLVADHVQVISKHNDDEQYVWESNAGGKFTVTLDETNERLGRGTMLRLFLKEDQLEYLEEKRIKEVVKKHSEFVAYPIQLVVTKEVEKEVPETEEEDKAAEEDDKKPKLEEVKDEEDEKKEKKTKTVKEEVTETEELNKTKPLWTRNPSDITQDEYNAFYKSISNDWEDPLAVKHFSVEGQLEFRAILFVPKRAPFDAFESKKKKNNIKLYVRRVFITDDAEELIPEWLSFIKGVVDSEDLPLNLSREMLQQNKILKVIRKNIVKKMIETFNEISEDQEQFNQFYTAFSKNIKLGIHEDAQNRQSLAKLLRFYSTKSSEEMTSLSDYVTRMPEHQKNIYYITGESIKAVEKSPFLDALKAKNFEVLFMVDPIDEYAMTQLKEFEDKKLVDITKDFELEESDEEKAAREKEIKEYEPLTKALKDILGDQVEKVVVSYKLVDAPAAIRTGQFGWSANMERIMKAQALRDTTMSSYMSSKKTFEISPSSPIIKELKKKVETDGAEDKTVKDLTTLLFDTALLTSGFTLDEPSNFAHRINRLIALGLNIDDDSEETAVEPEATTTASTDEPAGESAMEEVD
Chain of Serine/threonine-protein phosphatase (B9W6M3 whole entry): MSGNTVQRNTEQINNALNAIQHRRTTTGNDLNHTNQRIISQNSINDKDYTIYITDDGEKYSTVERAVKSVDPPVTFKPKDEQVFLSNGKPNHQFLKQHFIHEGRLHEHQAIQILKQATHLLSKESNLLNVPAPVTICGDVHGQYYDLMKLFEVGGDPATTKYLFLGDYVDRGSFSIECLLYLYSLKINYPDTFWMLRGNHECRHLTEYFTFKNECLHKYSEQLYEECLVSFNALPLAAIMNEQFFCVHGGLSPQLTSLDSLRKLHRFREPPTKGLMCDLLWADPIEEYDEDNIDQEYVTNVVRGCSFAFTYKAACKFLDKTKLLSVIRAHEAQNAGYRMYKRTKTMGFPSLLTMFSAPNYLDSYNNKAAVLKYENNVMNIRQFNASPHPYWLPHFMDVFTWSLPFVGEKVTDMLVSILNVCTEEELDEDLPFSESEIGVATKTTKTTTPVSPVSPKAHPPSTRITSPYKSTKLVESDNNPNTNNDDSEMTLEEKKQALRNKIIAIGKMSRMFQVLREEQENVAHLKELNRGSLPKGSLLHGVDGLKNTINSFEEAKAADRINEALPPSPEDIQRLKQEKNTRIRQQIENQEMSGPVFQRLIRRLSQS

SMILES: CNC(=O)CCc1nc(-c2ccc(Cl)cc2)no1
IC50 (HEK293 [1]): > 80 µM (inactive)
IC50 (Jurkat): > 80 µM (inactive)
IC50 (HEK293 [2]): > 80 µM (inactive)

SMILES: Nc1cc2ccncc2c2ccccc12
AC50 [3]: 1.23 µM (active)
AC50 [4]: 14.2 µM (active)
AC50 (HEK293 [5]): 9.97 µM (active)
AC50 [6]: 11.8 µM (active)

IC50 (Leucine aminopeptidase): 23.8 µM (active)
EC50 [7]: > 180 µM (inactive)
EC50 [8]: > 150 µM (inactive)
SMILES: COc1ccc(-n2c(-c3cccc(C)c3[N+](=O)[O-])n[nH]c2=S)cc1

EC50 (Mu-type opioid receptor): > 92.5 µM (inactive)
EC50 [9]: > 92.5 µM (inactive)
EC50 [10]: 11.9 µM (inactive)
SMILES: O=S(=O)(c1c(Cl)cc(Br)cc1Cl)N1CCN(C(=S)NC2CC2)CC1
